Values of other authors in patent US20120220630A1, “PRUCALOPRIDE ORAL SOLUTION” (Shire-Movetis NV, priority 2011, published 2012).

Experiments:
[1] = target: 5-HT2A receptors (Homo sapiens, UniProt P28223)
[2] = tested on: 5-HT3 receptors
[3] = target: 5-HT4 receptors (Homo sapiens, UniProt Q13639)
[4] = tested on: colonic motility and defecation; details: in animals

Chain of 5-HT2A receptors (P28223 whole entry): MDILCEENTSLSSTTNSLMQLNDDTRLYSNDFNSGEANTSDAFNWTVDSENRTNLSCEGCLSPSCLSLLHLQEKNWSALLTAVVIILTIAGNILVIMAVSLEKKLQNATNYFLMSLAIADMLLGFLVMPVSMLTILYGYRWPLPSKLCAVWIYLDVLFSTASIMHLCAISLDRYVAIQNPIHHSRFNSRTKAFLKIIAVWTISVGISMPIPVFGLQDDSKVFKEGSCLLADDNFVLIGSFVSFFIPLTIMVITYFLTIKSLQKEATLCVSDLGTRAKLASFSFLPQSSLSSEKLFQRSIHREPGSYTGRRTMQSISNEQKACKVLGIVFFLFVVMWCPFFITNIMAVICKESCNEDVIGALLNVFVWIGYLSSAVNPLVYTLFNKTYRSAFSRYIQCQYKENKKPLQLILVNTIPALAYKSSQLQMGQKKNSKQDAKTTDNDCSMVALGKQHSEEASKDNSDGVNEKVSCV
Chain of 5-HT4 receptors (Q13639 whole entry): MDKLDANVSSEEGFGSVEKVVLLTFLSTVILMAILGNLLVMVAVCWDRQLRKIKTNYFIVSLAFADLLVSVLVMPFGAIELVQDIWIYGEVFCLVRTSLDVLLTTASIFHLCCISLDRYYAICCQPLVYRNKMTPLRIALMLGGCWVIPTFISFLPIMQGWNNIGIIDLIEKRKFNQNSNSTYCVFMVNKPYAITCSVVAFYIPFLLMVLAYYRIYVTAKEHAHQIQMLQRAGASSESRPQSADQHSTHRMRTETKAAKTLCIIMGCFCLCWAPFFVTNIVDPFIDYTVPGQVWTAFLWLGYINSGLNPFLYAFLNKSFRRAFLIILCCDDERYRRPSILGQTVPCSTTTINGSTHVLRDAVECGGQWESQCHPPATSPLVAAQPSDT

affinity for 5-HT2A receptors [1]: no affinity
affinity for 5-HT3 receptors [2]: no affinity
agonism of 5-HT4 receptors [3]: potent and selective agonist
SMILES: COCCCN1CCC(NC(=O)c2cc(Cl)c(N)c3c2OCC3)CC1 [Prucalopride, 4-amino-5-chloro-2,3-dihydro-N-[1-(3-methoxypropyl)-4-piperidinyl]-7-benzofuran-carboxamide]
colonic motility and defecation [4]: stimulates colonic motility and defecation
